According to patent US20210070748A1, “INHIBITORS OF BRUTONS TYROSINE KINASE” (Pharmacyclics LLC, priority 2015, published 2021):

Tests used:
Assay type in all cases: biochemical
ITK = target: T1, ITK (Homo sapiens, UniProt Q08881); assay: Inhibition of a panel of kinases, in vitro HotSpot kinase assay: ITK; conditions: D-compounds panel data; 1 μM ATP
T1 sequence (Q08881 1-620): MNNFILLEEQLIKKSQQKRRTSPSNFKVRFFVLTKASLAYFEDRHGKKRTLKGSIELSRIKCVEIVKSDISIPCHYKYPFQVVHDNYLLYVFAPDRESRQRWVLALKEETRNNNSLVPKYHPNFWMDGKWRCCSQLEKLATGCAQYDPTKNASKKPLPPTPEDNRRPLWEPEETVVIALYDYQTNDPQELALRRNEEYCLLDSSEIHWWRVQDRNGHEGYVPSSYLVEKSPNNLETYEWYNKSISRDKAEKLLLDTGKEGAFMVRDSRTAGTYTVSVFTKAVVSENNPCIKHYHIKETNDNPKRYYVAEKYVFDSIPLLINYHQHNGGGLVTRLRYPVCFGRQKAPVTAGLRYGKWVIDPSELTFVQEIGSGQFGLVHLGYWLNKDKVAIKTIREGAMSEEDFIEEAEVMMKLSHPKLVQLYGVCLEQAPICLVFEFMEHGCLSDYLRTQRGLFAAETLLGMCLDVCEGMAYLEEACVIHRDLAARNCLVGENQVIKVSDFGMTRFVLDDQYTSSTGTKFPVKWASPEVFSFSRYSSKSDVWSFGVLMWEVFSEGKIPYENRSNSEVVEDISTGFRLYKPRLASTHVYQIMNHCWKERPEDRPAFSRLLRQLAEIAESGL
Method: (§1) The degree of inhibition of a panel of kinases is determined using the in vitro HotSpot kinase assay (purified enzymes, ^33P-ATP, an appropriate substrate and 1 μM ATP).

BTK-WT = target: T2, BTK-WT (Homo sapiens, UniProt Q06187); assay: Btk in vitro inhibitory activity (one of Method A TR-FRET, Method B electrophoretic mobility shift, Method C radiometric filter binding); conditions: D-compounds panel data; read-out: IC50 BTK-WT
T2 construct: purified from insect cells as a full-length construct containing an N-terminal 6X-His tag; His6 (N); made in house; host or cells: insect cells (baculovirus Sf21 in Method B)
T2 sequence (Q06187 whole entry): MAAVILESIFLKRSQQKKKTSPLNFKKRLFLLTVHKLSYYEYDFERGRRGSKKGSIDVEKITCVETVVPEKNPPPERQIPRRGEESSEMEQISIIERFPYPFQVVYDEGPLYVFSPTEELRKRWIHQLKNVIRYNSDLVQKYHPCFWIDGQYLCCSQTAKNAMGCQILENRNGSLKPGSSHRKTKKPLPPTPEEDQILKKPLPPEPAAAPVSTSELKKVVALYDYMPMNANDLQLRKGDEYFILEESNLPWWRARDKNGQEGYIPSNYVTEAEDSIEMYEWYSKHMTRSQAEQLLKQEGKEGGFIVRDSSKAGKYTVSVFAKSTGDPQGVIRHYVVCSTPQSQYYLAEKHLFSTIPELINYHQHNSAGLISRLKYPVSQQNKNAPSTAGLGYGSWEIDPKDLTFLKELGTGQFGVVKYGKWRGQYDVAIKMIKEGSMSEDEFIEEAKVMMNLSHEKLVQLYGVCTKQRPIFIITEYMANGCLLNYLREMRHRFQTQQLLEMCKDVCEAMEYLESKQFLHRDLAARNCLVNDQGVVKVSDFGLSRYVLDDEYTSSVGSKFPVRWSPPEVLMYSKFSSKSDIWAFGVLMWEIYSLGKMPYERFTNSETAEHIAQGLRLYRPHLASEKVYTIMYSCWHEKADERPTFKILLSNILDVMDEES

LCK = LCK (Homo sapiens, UniProt P06239); assay: Inhibition of a panel of kinases, in vitro HotSpot kinase assay: LCK; conditions: D-compounds panel data; 1 μM ATP; read-out: IC50 LCK
Chain of LCK (P06239 whole entry): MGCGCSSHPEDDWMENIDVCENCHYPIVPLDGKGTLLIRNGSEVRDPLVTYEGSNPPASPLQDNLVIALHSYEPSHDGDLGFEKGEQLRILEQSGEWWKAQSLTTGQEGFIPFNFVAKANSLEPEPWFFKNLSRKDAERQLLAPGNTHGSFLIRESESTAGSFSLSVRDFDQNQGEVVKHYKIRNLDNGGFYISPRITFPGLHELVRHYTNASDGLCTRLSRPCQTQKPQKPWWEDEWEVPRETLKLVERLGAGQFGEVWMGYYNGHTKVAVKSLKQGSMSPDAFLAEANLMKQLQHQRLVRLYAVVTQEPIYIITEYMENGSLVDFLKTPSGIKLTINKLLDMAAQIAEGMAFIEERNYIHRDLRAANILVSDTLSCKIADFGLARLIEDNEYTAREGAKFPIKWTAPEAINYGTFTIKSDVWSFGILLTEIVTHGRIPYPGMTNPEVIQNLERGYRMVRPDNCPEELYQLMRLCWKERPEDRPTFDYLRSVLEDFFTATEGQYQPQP

EGFR = EGFR (Homo sapiens, UniProt P00533); assay: Inhibition of a panel of kinases, in vitro HotSpot kinase assay: EGFR; conditions: D-compounds panel data; 1 μM ATP
Chain of EGFR (P00533 25-1210): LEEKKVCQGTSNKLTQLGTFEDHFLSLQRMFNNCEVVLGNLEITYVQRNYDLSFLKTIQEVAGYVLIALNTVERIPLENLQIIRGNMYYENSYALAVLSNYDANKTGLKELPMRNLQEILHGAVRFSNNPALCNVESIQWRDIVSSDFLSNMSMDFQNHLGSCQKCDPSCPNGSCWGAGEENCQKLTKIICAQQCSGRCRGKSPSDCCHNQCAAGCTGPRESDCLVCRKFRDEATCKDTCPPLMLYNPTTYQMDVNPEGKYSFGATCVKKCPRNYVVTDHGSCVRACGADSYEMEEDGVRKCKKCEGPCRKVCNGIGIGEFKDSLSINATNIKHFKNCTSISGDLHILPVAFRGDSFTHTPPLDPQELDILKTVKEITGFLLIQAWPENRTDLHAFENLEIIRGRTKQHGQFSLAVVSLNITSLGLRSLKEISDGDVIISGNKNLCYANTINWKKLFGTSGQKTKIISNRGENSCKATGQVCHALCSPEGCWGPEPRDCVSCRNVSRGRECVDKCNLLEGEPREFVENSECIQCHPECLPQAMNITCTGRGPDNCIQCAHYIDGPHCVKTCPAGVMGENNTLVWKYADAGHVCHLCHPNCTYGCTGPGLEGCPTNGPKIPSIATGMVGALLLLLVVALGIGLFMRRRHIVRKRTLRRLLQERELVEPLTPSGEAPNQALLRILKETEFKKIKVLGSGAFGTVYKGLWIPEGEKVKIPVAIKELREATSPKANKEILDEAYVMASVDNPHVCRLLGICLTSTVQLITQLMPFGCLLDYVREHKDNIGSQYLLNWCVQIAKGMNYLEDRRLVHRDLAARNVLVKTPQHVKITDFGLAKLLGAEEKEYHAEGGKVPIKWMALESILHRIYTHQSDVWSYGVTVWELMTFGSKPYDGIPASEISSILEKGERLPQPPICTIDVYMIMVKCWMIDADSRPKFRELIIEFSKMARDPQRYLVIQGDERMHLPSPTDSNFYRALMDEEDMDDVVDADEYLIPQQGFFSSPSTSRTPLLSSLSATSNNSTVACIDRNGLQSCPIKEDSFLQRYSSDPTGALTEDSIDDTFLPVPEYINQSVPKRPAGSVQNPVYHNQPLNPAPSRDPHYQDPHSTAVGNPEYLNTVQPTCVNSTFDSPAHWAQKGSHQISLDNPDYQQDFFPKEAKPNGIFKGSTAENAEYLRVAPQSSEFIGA
Method: as §1

TEC = target: T3, TEC (Homo sapiens, UniProt P42680); assay: Inhibition of a panel of kinases, in vitro HotSpot kinase assay: TEC; conditions: D-compounds panel data; 1 μM ATP
T3 sequence (P42680 1-631): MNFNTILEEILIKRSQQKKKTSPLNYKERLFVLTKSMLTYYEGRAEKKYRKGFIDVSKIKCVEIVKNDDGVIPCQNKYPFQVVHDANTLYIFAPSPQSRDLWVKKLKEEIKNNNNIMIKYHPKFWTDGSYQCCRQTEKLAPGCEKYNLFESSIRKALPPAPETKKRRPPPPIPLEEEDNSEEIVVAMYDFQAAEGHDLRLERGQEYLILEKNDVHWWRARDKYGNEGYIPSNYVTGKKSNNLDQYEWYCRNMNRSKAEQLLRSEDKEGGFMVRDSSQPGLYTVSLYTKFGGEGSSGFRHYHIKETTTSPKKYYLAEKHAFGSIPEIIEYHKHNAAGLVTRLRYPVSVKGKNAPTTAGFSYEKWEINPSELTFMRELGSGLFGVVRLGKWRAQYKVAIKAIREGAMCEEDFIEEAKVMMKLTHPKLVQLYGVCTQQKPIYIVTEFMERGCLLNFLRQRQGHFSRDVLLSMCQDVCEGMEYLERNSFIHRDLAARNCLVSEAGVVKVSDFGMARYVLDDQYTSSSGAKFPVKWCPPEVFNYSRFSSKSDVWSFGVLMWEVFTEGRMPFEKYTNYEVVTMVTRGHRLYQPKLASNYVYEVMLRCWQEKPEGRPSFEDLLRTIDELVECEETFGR
Method: as §1

Compound	IC50 (ITK)	IC50 (BTK-WT)	IC50 (LCK)	IC50 (EGFR)	IC50 (TEC)
C[C@@H]1[C@H](NC(=O)c2ccc3c(c2)C(C)(C)CO3)CCCN1c1cnc(C(N)=O)c(Nc2cnn(C)c2)n1 [Example D-55, 5-[(2R,3R)-3-(3,3-dimethyl-2,3-dihydro-1-benzofuran-5-amido)-2-methylpiperidin-1-yl]-3-[(1-methyl-1H-pyrazol-4-yl)amino]pyrazine-2-carboxamide]	100 to 1000 nM	≤ 10 nM	10 to 100 nM	1000 to 10000 nM	≤ 10 nM
CC1COc2cc(C(=O)N[C@@H]3CCCN(c4cnc(C(N)=O)c(Nc5cnn(C)c5)n4)[C@@H]3C)ccc2C1 (stereo partly drawn) [Example D-56, 3-[(1-methyl-1H-pyrazol-4-yl)amino]-5-[(2R,3R)-2-methyl-3-(3-methyl-3,4-dihydro-2H-1-benzopyran-7-amido)piperidin-1-yl]pyrazine-2-carboxamide]	100 to 1000 nM	≤ 10 nM	10 to 100 nM	100 to 1000 nM	≤ 10 nM
C[C@@H]1[C@H](NC(=O)c2cnn(C(C)(C)C)c2)CCCN1c1cnc(C(N)=O)c(Nc2cnn(C)c2)n1 [Example D-57, 5-[(2R,3R)-3-(1-tert-butyl-1H-pyrazole-4-amido)-2-methylpiperidin-1-yl]-3-[(1-methyl-1H-pyrazol-4-yl)amino]pyrazine-2-carboxamide]	100 to 1000 nM	≤ 10 nM	100 to 1000 nM	1000 to 10000 nM	10 to 100 nM
CN(C)C(=O)N[C@@H]1CCCN(c2cnc(C(N)=O)c(Nc3ccc(C4(C)CCN(C5CCCC5)CC4)cc3)n2)[C@@H]1CO [Example D-58, 3-{[4-(1-cyclopentyl-4-methylpiperidin-4-yl)phenyl]amino}-5-[(2S,3R)-3-[(dimethylcarbamoyl)amino]-2-(hydroxymethyl)piperidin-1-yl]pyrazine-2-carboxamide]	1000 to 10000 nM	≤ 10 nM	100 to 1000 nM	100 to 1000 nM	100 to 1000 nM
CN(C)C(=O)N[C@H]1CCCN(c2cnc(C(N)=O)c(Nc3ccc(C4(C)CCN(C5CCCC5)CC4)cc3)n2)[C@H]1CO [Example D-59, 3-{[4-(1-cyclopentyl-4-methylpiperidin-4-yl)phenyl]amino}-5-[(2R,3S)-3-[(dimethylcarbamoyl)amino]-2-(hydroxymethyl)piperidin-1-yl]pyrazine-2-carboxamide]	1000 to 10000 nM	100 to 1000 nM	1000 to 10000 nM	1000 to 10000 nM	> 10000 nM
CN(C)C(=O)N[C@@H]1CCCN(c2cnc(C(N)=O)c(Nc3ccc(C4(C)CCN(C5CCCC5)CC4)cc3)n2)[C@H]1CO [Example D-60, 3-{[4-(1-cyclopentyl-4-methylpiperidin-4-yl)phenyl]amino}-5-[(2R,3R)-3-[(dimethylcarbamoyl)amino]-2-(hydroxymethyl)piperidin-1-yl]pyrazine-2-carboxamide]	100 to 1000 nM	100 to 1000 nM	1000 to 10000 nM	1000 to 10000 nM	1000 to 10000 nM
CN(C)C(=O)N[C@H]1CCCN(c2cnc(C(N)=O)c(Nc3ccc(C4(C)CCN(C5CCCC5)CC4)cc3)n2)[C@@H]1CO [Example D-61, 3-{[4-(1-cyclopentyl-4-methylpiperidin-4-yl)phenyl]amino}-5-[(2S,3S)-3-[(dimethylcarbamoyl)amino]-2-(hydroxymethyl)piperidin-1-yl]pyrazine-2-carboxamide]	1000 to 10000 nM	100 to 1000 nM	1000 to 10000 nM	> 10000 nM	> 10000 nM
C[C@@H]1[C@H](NC(=O)c2ccc(C3CC3)cc2F)CCCN1c1cnc(C(N)=O)c(Nc2nc3c(s2)CN(C)CC3)n1 [Example D-62, 5-[(2R,3R)-3-(4-cyclopropyl-2-fluorobenzamido)-2-methylpiperidin-1-yl]-3-({5-methyl-4H,5H,6H,7H-[1,3]thiazolo[5,4-c]pyridin-2-yl}amino)pyrazine-2-carboxamide]	> 10000 nM	100 to 1000 nM	> 10000 nM	> 10000 nM	100 to 1000 nM
